“And” between values parts separate entries of the source, which are not always exact repeats. Equal entries are not always repeated. “Also recorded” adds a separate entry of the source. Where two headings read alike, the source gives them in different places.
Columns and labels:
[1] = Mosquito dosing experiments: ivermectin recovered from single mosquitoes directly after membrane blood feeding (LC-MS/MS); type: in vivo, Aedes aegypti
Method: Drug stock solutions were prepared in DMSO and added to blank human blood at a ratio of 1:1000 so that the DMSO content was less than 0.2%. The mixtures were rotated at room temperature for 30 min to ensure a uniform drug distribution (Rotator Genie, Scientific Industries, Bohemia, USA). The sugar water within the mosquito cages was replaced by tap water 24 h prior to the PK experiments. Twelve hours later, the tap water was also removed to starve the mosquitoes. On the day of the PK experiment, 25–35 starved, female mosquitoes with an age of 6–7 days post-emergence were transferred with a mouth aspirator into 2 dl paper cups that were sealed with a piece of mosquito netting. […] A petri dish (35 mm x 10 mm, BD, Franklin Lakes, USA) was filled with 2.55 ml of warm blood, sealed with a piece of Parafilm (Parafilm M sealing film, Huberlab AG, Aesch, Switzerland) stretched over the rim and turned upside down on top of the paper cup. The mosquitoes were then feeding from blood through the netting and the Parafilm membrane. The feeding was conducted in a climate chamber (HPP110, Memmert GmbH + Co.KG, Schwabach, Germany) at 26° C, 70% humidity, and 50% light intensity. The photoperiod of the climate chamber and the insectary were synchronised. After 20 min of feeding, the cups were placed on ice to immobilise the mosquitoes and separate the fully engorged ones. […]
The first aim was to evaluate the variability of the blood uptake by the mosquitoes. […] The strength of the association was assessed using a linear regression model and its correlation coefficient R^2 using GraphPad prism software 9.0.0 (San Diego, USA). […]
Mosquito extracts were analysed using a modular ultra-high-pressure liquid chromatography (UPLC) system from Shimadzu (Kyoto, Japan) connected to an API 5500 QTRAP tandem mass spectrometer (AB Sciex, Massachusetts, USA). A previously developed and validated LC-MS/MS method for the quantification of ivermectin in human plasma and blood was used for the analyses. […]

Anopheles mosquitoes = details: cited from earlier work
Aedes aegypti mosquitoes [2] = details: IVM 0.1, KCZ 5, RIF 10, RTV 10, PBO 10 μg/ml in blood; for Mosquito survival (%): 50 mosquitoes
[3] = Pharmacokinetic and drug-drug interaction studies in blood-fed mosquitoes (concentration-time courses, population PK modelling); details: for Ivermectin concentration in single mosquito: IVM (0.1 µg/ml) in human blood, Batch 4, individual mosquitoes, listed as IVM
Aedes aegypti mosquitoes [4] = assay: Drug effect on mosquito fecundity (eggs laid after 96 h); type: in vivo
Method: The mixtures were rotated at room temperature for 30 min to ensure a uniform drug distribution (Rotator Genie, Scientific Industries, Bohemia, USA). […] Twelve hours later, the tap water was also removed to starve the mosquitoes. […] The mosquitoes were then feeding from blood through the netting and the Parafilm membrane. […] The photoperiod of the climate chamber and the insectary were synchronised. […] The engorged mosquitoes were either directly frozen at -20°C or returned to the climate chamber for certain time periods to assess the PK. […] Blood feeding was done as described above. […] In contrast to the PK experiments, the mosquitoes had unlimited access to water because a moistened oviposition substrate was inserted into the paper cup. Fecundity was defined as the total number of eggs laid after 96 h. […] The filter paper served as the oviposition substrate. The cotton wool was soaked with fresh water and covered by a new filter paper after 48, 72, and 96 h post-treatment. After the assay, the eggs were left to mature for 24 h in the insectary. […] R Foundation for Statistical Computing, http://www.R-project.org, Vienna, Austria). Normality was assessed using the Shapiro-Wilk test. For normally distributed data (mortality, fecundity), group differences were assessed with one-way ANOVA testing, and, where applicable, followed up with Tukey's test. Group differences in fertility (not normally distributed) were evaluated with Kruskal-Wallis one-way analysis of variance, and Wilcoxon rank sum testing as post-hoc.

Ae. aegypti = system: Ae. aegypti; parameters: method as in PMID 20540931; details: single oral dose of 150 μg/kg; cited from earlier work
[5] = ivermectin 0.1 μg/ml plus ritonavir 10 μg/ml in blood
[6] = non-parametric bootstrap analysis (n = 1’000)
[7] = 4 days, IVM 0.1, KCZ 5, RIF 10, RTV 10, PBO 10 μg/ml in blood, 50 mosquitoes

## CCC(C)C1OC2(CCC1C)CC1CC(CC=C(C)C(OC3CC(OC)C(OC4CC(OC)C(O)C(C)O4)C(C)O3)C(C)C=CC=C3COC4C(O)C(C)=CC(C(=O)O1)C34O)O2 (stereo not shown) [ivermectin]
[1]; 0.01–1 μg/ml ivermectin in blood
  Saturation of uptake over the dose range: no saturation was observed; also recorded: without showing saturation
[1]; 0.01–1 μg/ml ivermectin in blood, n = 30 mosquitoes per dose
  Dosing precision (%CV) of ivermectin, adjusted for mosquito weight: less than 13.4%
[1]; ivermectin dose 0.01 µg/ml in blood, directly after feeding, single mosquitoes 1-30
  Ivermectin concentration per mosquito weight: 0.007 ng/mg and 0.009 ng/mg and 0.008 ng/mg and 0.010 ng/mg and 0.011 ng/mg
Anopheles mosquitoes
  Lethal concentration for Anopheles mosquitoes: low nanomolar range
Aedes aegypti mosquitoes [2]; 0 days post feeding
  Mosquito survival (%): 100%
Aedes aegypti mosquitoes [2]; 1 day post feeding
  Mosquito survival (%): 100%
Aedes aegypti mosquitoes [2]; four days, 3 batches of 50
  four-day mosquito mortality: 17%
[3]; 0.1 μg/ml ivermectin in blood, pharmacometric modelling
  zero-order elimination rate: 5.5 pg/h
[3]; IVM 0.1, KCZ 5, RIF 10, PBO 10 μg/ml in blood, up to 72 h
  Course / extent of elimination from the mosquitoes: after 72 h only traces of ivermectin were still detectable
[3]; IVM 0.1, KCZ 5, RIF 10, RTV 10, PBO 10 μg/ml in blood
  Type of elimination kinetics in the mosquito: zero-order elimination; also recorded: zero-order kinetics
[3]; 0 h post feeding
  Ivermectin concentration in single mosquito: 0.079 ng/mg msq (2×) and 0.077 ng/mg msq (2×) and 0.075 ng/mg msq and 0.084 ng/mg msq (2×) and 0.087 ng/mg msq and 0.089 ng/mg msq (2×) and 0.085 ng/mg msq and 0.088 ng/mg msq and 0.078 ng/mg msq (2×) and 0.083 ng/mg msq (4×) and 0.062 ng/mg msq and 0.074 ng/mg msq
[3]; 6 h post feeding
  Ivermectin concentration in single mosquito: 0.100 ng/mg msq (2×) and 0.086 ng/mg msq (2×) and 0.098 ng/mg msq and 0.092 ng/mg msq (2×) and 0.079 ng/mg msq and 0.085 ng/mg msq and 0.104 ng/mg msq and 0.082 ng/mg msq and 0.094 ng/mg msq and 0.083 ng/mg msq and 0.103 ng/mg msq (2×) and 0.160 ng/mg msq and 0.148 ng/mg msq and 0.096 ng/mg msq and 0.111 ng/mg msq and 0.113 ng/mg msq
[3]; 12 h post feeding
  Ivermectin concentration in single mosquito: 0.073 ng/mg msq and 0.065 ng/mg msq and 0.093 ng/mg msq (2×) and 0.095 ng/mg msq (2×) and 0.090 ng/mg msq (3×) and 0.085 ng/mg msq (2×) and 0.063 ng/mg msq and 0.087 ng/mg msq and 0.077 ng/mg msq and 0.104 ng/mg msq and 0.116 ng/mg msq and 0.103 ng/mg msq and 0.086 ng/mg msq and 0.098 ng/mg msq and 0.124 ng/mg msq
[3]; 24 h post feeding
  Ivermectin concentration in single mosquito: 0.073 ng/mg msq (2×) and 0.070 ng/mg msq (2×) and 0.074 ng/mg msq and 0.068 ng/mg msq and 0.090 ng/mg msq and 0.064 ng/mg msq (3×) and 0.067 ng/mg msq and 0.078 ng/mg msq and 0.055 ng/mg msq and 0.062 ng/mg msq and 0.058 ng/mg msq and 0.072 ng/mg msq and 0.056 ng/mg msq (2×) and 0.084 ng/mg msq and 0.057 ng/mg msq
[3]; 36 h post feeding
  Ivermectin concentration in single mosquito: 0.068 ng/mg msq (3×) and 0.044 ng/mg msq and 0.052 ng/mg msq and 0.090 ng/mg msq and 0.039 ng/mg msq and 0.038 ng/mg msq and 0.056 ng/mg msq and 0.053 ng/mg msq and 0.071 ng/mg msq and 0.060 ng/mg msq (2×) and 0.050 ng/mg msq and 0.036 ng/mg msq and 0.051 ng/mg msq and 0.062 ng/mg msq and 0.043 ng/mg msq and 0.037 ng/mg msq and 0.073 ng/mg msq
[3]; final population PK model
  IOV dose (inter-occasion variability), estimate: 0.11
  Inter-individual variability (ω) of dose, estimate: 0.075
  Inter-individual variability (ω) of kel, estimate: 0.25
[3]; final population PK model, 0.1 μg/ml ivermectin in blood
  kel (zero-order elimination rate), estimate: 0.0055 ng/h
[3]; final population PK model, 0.1 μg/ml ivermectin in blood, median mosquito weight 3.4 mg
  dose (amount absorbed from the blood meal), estimate: 0.28 ng
[3]; human blood spiked with 0.1 μg/ml ivermectin, four batches
  Amount of ivermectin imbibed per feeding, mean ± SD: 0.36 ± 0.06 ng
[3]; [5]
  Effect of ritonavir on the elimination rate of ivermectin: not affected
  Increase of ivermectin exposure (AUC) compared to ivermectin alone: 29%
[3]; [6]
  IOV dose, bootstrap median: 0.11
  Inter-individual variability (ω) of dose, bootstrap median: 0.075
  Inter-individual variability (ω) of kel, bootstrap median: 0.25
  Tlag, bootstrap median: 18.5 h
  dose, bootstrap median: 0.28 ng
[3]; non-parametric bootstrap analysis (n = 1’000), ritonavir co-treatment
  Tlag_add_rit, bootstrap median: 11.4 h
Aedes aegypti mosquitoes [4]; [7]
  Mosquito fecundity, Batch 1, mg eggs (4 days): 18.22 mg eggs
  Mosquito fecundity, Batch 2, mg eggs (4 days): 8.65 mg eggs
  Mosquito fecundity, Batch 3, mg eggs (4 days): 16.69 mg eggs
Aedes aegypti mosquitoes [4]; four days, IVM 0.1, RTV 10, PBO 10 μg/ml in blood
  Effect on number of mosquito eggs (fecundity) compared to blank blood: reduced the number of mosquito eggs
Ae. aegypti
  Host blood concentration relative to LD50 against Ae. aegypti: ≤ 10 % of the LD50
